Assay results from US20260256807A1, “SUBSTITUTED PYRAZOLES AND IMIDAZOLES AS OREXIN RECEPTOR ANTAGONISTS COMPOSITION, METHODS FOR TREATING NEUROLOGICAL AND PSYCHOLOGICAL DISORDERS” (HAGER BIOSCIENCES, LLC, priority 2022, published 2026).

Legend:
human orexin-1 receptor = biological target: T1, human orexin-1 receptor (Homo sapiens, UniProt O43613); assay: Intracellular calcium (FLIPR) antagonist assay, CHO cells expressing human orexin-1 receptor, 3 nM orexin-A; assay type: cell-based; conditions: 1 uM compound, orexin-A 3 nM; for inhibition at 1 µM: CHO, read-out: OXIR % Inh. @ 1 uM
T1 construct: expressed in transfected cells; host or cells: CHO cells (G418 selection)
T1 sequence (O43613 1-425): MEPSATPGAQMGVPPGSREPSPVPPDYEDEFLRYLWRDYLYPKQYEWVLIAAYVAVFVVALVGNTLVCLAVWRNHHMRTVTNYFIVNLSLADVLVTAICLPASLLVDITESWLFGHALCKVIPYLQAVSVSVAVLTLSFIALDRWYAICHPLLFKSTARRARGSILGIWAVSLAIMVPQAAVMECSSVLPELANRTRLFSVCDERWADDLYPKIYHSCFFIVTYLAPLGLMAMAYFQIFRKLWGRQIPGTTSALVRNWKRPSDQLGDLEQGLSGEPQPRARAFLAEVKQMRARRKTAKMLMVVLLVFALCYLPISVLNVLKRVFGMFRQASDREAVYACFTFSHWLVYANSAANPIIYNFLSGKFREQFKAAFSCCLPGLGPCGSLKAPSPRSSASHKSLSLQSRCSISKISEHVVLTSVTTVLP
Procedure: (§1) Antagonistic activities on both orexin receptors (i.e., to identify Orexin Receptor Antagonists) have been measured for each example compound using the in vitro assays (intracellular calcium measurements) as described herein. Other assays may also be used to identify Orexin Receptor Antagonists as would be understood by those of ordinary skill in the art. Chinese hamster ovary (CHO) cells expressing the human orexin-1 receptor and the human orexin-2 receptor, respectively, are grown in culture medium (Ham F-12 with L-Glutamine) containing 300 μg/mL G418, 100 U/mL penicillin, 100 μg/mL streptomycin and 10% heat inactivated fetal calf serum (FCS). The cells are seeded at 20′000 cells/well into 384-well black clear bottom sterile plates (Greiner). The seeded plates are incubated overnight at 37° C. in 5% CO2. Human orexin-A as an agonist is prepared as 1 mM stock solution in MeOH: water (1:1), diluted in HBSS containing 0.1% bovine serum albumin (BSA), NaHC03: 0.375 g/L and 20 mM HEPES for use in the assay at a final concentration of 3 nM.
(§2) Antagonists were prepared as 10 mM stock solution in DMSO, then diluted in 384-well plates using DMSO followed by a transfer of the dilutions into in HBSS containing 0.1% bovine serum albumin (BSA), NaHC03: 0.375 g/L and 20 mM HEPES. On the day of the assay, 50 μL of staining buffer (HBSS containing 1% FCS, 20 mM HEPES, NaHC03: 0.375 g/L, 5 mM probenecid (Sigma) and 3 μM of the fluorescent calcium indicator fluro-4 AM (1 mM stock solution in DMSO, containing 10% pluronic) is added to each well. The 384-well cell-plates are incubated for 50 min at 37° C. in 5% C02 followed by equilibration at RT for 30 min before measurement. Within the Fluorescent Imaging Plate Reader (FLIPR Tetra, Molecular Devices), potential Orexin Receptor Antagonists were added to the plate in a volume of 10 μl/well, incubated for 120 min and finally 10 μL/well of agonist is added. Fluorescence was measured for each well at 1 second intervals, and the height of each fluorescence peak compared to the height of the fluorescence peak induced by 3 nM orexin-A with vehicle in place of antagonist. The IC50 value (the concentration of compound needed to inhibit 50% of the agonistic response) was determined and normalized using the obtained IC50 value of an on-plate reference compound. Optimized conditions were achieved by adjustment of pipetting speed and cell splitting regime. The calculated IC50 values fluctuate depending on the daily cellular assay performance, as is known to those skilled in the art. In the case where IC50 values have been determined several times for the same compound, the geometric mean has been given.

human orexin-2 receptor = biological target: T2, human orexin-2 receptor (Homo sapiens, UniProt O43614); assay: Intracellular calcium (FLIPR) antagonist assay, CHO cells expressing human orexin-2 receptor, 3 nM orexin-A; assay type: cell-based; conditions: 1 uM compound, orexin-A 3 nM; for inhibition at 1 µM: CHO, read-out: OX2R % Inh. @ 1uM
T2 construct: expressed in transfected cells; host or cells: CHO cells (G418 selection)
T2 sequence (O43614 1-444): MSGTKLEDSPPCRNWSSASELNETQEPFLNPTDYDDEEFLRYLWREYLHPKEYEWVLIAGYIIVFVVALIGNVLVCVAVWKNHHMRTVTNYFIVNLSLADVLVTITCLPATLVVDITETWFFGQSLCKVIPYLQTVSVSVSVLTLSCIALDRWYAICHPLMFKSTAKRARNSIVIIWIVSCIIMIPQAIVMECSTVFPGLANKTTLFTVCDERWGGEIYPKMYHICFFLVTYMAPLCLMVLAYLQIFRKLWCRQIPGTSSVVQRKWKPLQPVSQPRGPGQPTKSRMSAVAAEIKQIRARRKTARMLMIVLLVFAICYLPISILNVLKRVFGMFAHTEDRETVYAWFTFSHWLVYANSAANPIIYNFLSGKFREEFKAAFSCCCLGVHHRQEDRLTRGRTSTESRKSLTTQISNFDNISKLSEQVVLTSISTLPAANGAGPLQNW
Procedure: as §1, §2

| Compound | OXIR % Inh. @ 1 uM (human orexin-1 receptor) [%] | inhibition at 1 µM (human orexin-2 receptor) [%] | inhibition at 1 µM (human orexin-1 receptor) [%] | OX2R % Inh. @ 1uM (human orexin-2 receptor) [%] |
| --- | --- | --- | --- | --- |
| COc1ccc(N2CC[C@@H](C)N(C(=O)c3c(-c4ccccn4)nn4ccccc34)CC2)nc1 [Example 81] | 76 | 47 | – | – |
| C[C@@H]1CCN(c2cnc(C(F)(F)F)cn2)CCN1C(=O)c1nn2c(c1-c1ccccc1)COCC2 [Example 82] | – | 2 | 39 | – |
| C[C@@H]1CCN(c2cnc(C(F)(F)F)cn2)CCN1C(=O)c1nc2ccccn2c1-c1ccccc1 [Example 83] | – | 27 | 69 | – |
| C[C@@H]1CCN(c2cnc(C(F)(F)F)cn2)CCN1C(=O)c1nn2c(c1-c1ccccc1)OCCC2 [Example 84] | – | 27 | 71 | – |
| C[C@@H]1CCN(c2cnc(C(F)(F)F)cn2)CCN1C(=O)c1nn2cccnc2c1-c1ccccc1 [Example 85] | – | 52 | 93 | – |
| C[C@@H]1CCN(c2cnc(C(F)(F)F)cn2)CCN1C(=O)c1nn2ccccc2c1-c1ccccc1 [Example 86] | – | 63 | 89 | – |
| C[C@@H]1CCN(c2cnc(C(F)(F)F)cn2)CCN1C(=O)c1c(-c2ccccn2)nn2ccccc12 [Example 87] | – | 57 | 83 | – |
| C[C@@H]1CCN(c2cnc(C(F)(F)F)cn2)CCN1C(=O)c1c(-c2ncccn2)nn2ccccc12 [Example 88] | – | 29 | 51 | – |
| C[C@@H]1CCN(c2cnc(C(F)(F)F)cn2)CCN1C(=O)c1c(-c2ccccc2)nn2c1COCC2 [Example 89] | – | 10 | 25 | – |
| C[C@@H]1CCN(c2cnc(C(F)(F)F)cn2)CCN1C(=O)c1c(-c2ccccc2)nn2ccccc12 [Example 90] | – | 80 | 95 | – |
| C[C@@H]1CN(c2cnc(C(F)(F)F)cn2)CCCN1C(=O)c1c(-c2ccccc2)nn2cccnc12 [Example 91] | – | 74 | 87 | – |
| COc1ccc(N2CC[C@@H](C)N(C(=O)c3c(-c4ncccn4)nn4ccccc34)CC2)nc1 [Example 92] | – | 13 | 25 | – |
| COc1ccc(N2CC[C@@H](C)N(C(=O)c3c(-c4ccccn4)nn4ccccc34)CC2)nc1 [Example 93] | 36 | – | – | 33 |
| C[C@@H]1CCN(c2cnc(C(F)(F)F)cn2)CCN1C(=O)c1c(-c2ncccn2)nn2ccccc12 [Example 94] | 43 | – | – | 21 |
| C[C@@H]1CCN(c2cnc(C(F)(F)F)cn2)CCN1C(=O)c1c(-c2ccccn2)nn2ccccc12 [Example 95] | 86 | – | – | 61 |
| C[C@@H]1CCN(c2nc3cc(Cl)ccc3o2)CCN1C(=O)c1nn2cccnc2c1-c1ccccn1 [Example 96] | – | 71 | 100 | – |
| C[C@@H]1CCN(c2ccc(C(F)(F)F)cn2)CCN1C(=O)c1nn2cccnc2c1-c1ccccn1 [Example 97] | – | 51 | 98 | – |
| C[C@@H]1CCN(c2cnc(C(F)(F)F)cn2)CCN1C(=O)c1nn2cccnc2c1-c1ccccn1 [Example 98] | – | 26 | 57 | – |
| Cc1cc(C)nc(N2CC[C@@H](C)N(C(=O)c3nn4cccnc4c3-c3ccccn3)CC2)n1 [Example 99] | – | 56 | 45 | – |
| C[C@@H]1CCN(c2nc3cc(Cl)ccc3o2)CCN1C(=O)c1ccnn1-c1ccccc1 [Example 100] | – | 57 | 54 | – |
| C[C@@H]1CCN(c2ccc(C(F)(F)F)cn2)CCN1C(=O)c1ccnn1-c1ccccc1 [Example 101] | – | 32 | 19 | – |
